Values after ≈ are worked out from the molar mass of the structure shown.
Tested on: Mycobacterium tuberculosis
Assay: Antibacterial activity multi-drug resistant Mycobacterium tuberculosis H37Rv ATCC 35822 assessed as inhibition of bacterial growth incubated for 2 days by CLSI protocol based broth microdilution method
Assay type: functional
Conditions: H37Rv ATCC 35822, 48 h, time 2 day

`COc1ccc2nc(CN3CCN(S(=O)(=O)c4ccccc4C(F)(F)F)CC3)cc(OC)c2c1` was tested, and the MIC was > 64 µg/mL.
For `COc1ccc(C(=O)N2CCN(Cc3cc(OC)c4cc(F)ccc4n3)CC2)cc1`, the MIC was > 64 µg/mL.
`COc1ccc2nc(CN3CCN(S(=O)(=O)c4cccs4)CC3)cc(OC)c2c1` was tested, and the MIC was > 64 µg/mL.
In the case of `COc1ccc(S(=O)(=O)N2CCN(Cc3cc(OC)c4cc(F)ccc4n3)CC2)cc1`, the MIC was > 64 µg/mL.
For `COc1cc(CN2CCN(C(=O)c3cccc(F)c3)CC2)nc2ccc(F)cc12`, the MIC was > 64 µg/mL.
`COc1ccc2nc(CN3CCN(S(=O)(=O)c4cccc5ccccc45)CC3)cc(OC)c2c1` was tested, and the MIC was > 64 µg/mL.
With `COc1ccc2nc(CN3CCN(S(=O)(=O)c4c(C)cc(C)cc4C)CC3)cc(OC)c2c1` the MIC was > 64 µg/mL.
With `COc1cccc(C(=O)N2CCN(Cc3cc(OC)c4cc(OC)ccc4n3)CC2)c1` the MIC was > 64 µg/mL.
`COc1cc(CN2CCN(S(=O)(=O)c3ccccc3F)CC2)nc2ccc(F)cc12` showed an MIC of 4 µg/mL (≈ 9.23 µM).
For `COc1ccc2nc(CN3CCN(S(=O)(=O)c4ccc(NC(C)=O)cc4)CC3)cc(OC)c2c1`, the MIC was > 64 µg/mL.
For `COc1ccc2nc(CN3CCN(S(=O)(=O)c4ccccc4F)CC3)cc(OC)c2c1`, the MIC was 0.5 µg/mL (≈ 1.12 µM).
`COc1ccc2nc(CN3CCN(C(=O)c4c(Cl)cccc4Cl)CC3)cc(OC)c2c1` was tested, and the MIC was > 64 µg/mL.
With `CO[C@H]1/C=C/O[C@@]2(C)Oc3c(C)c(O)c4c(O)c(c(/C=N/N5CCN(C)CC5)c(O)c4c3C2=O)NC(=O)/C(C)=C\C=C\[C@H](C)[C@H](O)[C@@H](C)[C@@H](O)[C@@H](C)[C@H](OC(C)=O)[C@@H]1C` [RIFAMPIN] the MIC was > 64 µg/mL.
For `COc1cc(CN2CCN(S(=O)(=O)c3ccc(Cl)cc3Cl)CC2)nc2ccc(F)cc12`, the MIC was > 64 µg/mL.
With `COc1ccc2nc(CN3CCN(C(=O)C4CCC4)CC3)cc(OC)c2c1` the MIC was > 64 µg/mL.
In the case of `CNS(=O)(=O)N1CCN(Cc2cc(OC)c3cc(OC)ccc3n2)CC1`, the MIC was > 64 µg/mL.
With `COc1ccc2nc(CN3CCN(C(=O)c4ccccc4F)CC3)cc(OC)c2c1` the MIC was > 64 µg/mL.
`COc1ccc2nc(CN3CCN(C(=O)c4ccc(Cl)cc4Cl)CC3)cc(OC)c2c1` was tested, and the MIC was > 64 µg/mL.
In the case of `COc1cc(CN2CCN(S(=O)(=O)c3ccc(NC(C)=O)cc3)CC2)nc2ccc(F)cc12`, the MIC was > 64 µg/mL.
In the case of `C[C@H]1COc2c(N3CCN(C)CC3)c(F)cc3c(=O)c(C(=O)O)cn1c23.C[C@H]1COc2c(N3CCN(C)CC3)c(F)cc3c(=O)c(C(=O)O)cn1c23.O` [LEVOFLOXACIN], the MIC was 4 µg/mL.
`COc1cc(CN2CCN(C(=O)c3ccccc3F)CC2)nc2ccc(F)cc12` was tested, and the MIC was > 64 µg/mL.
In the case of `COc1cc(CN2CCN(S(=O)(=O)c3ccc(C)cc3)CC2)nc2ccc(F)cc12`, the MIC was > 64 µg/mL.
`COc1cc(CN2CCN(C(=O)c3cccc(Cl)c3)CC2)nc2ccc(F)cc12` was tested, and the MIC was > 64 µg/mL.
For `COc1ccc2nc(CN3CCN(C(=O)c4ccc(Cl)c(Cl)c4)CC3)cc(OC)c2c1`, the MIC was > 64 µg/mL.
`COc1ccc2nc(CN3CCN(S(=O)(=O)c4ccc(F)cc4)CC3)cc(OC)c2c1` was tested, and the MIC was > 64 µg/mL.
In the case of `COc1ccc2nc(CN3CCN(S(=O)(=O)c4c(F)c(F)c(F)c(F)c4F)CC3)cc(OC)c2c1`, the MIC was > 64 µg/mL.
In the case of `COc1ccc2nc(CN3CCN(C(=O)c4ccccc4OC)CC3)cc(OC)c2c1`, the MIC was > 64 µg/mL.
With `COc1cc(CN2CCN(C(=O)c3ccccc3C)CC2)nc2ccc(F)cc12` the MIC was > 64 µg/mL.

Source: ChEMBL document CHEMBL5230166, “Novel quinoline-piperazine hybrids: the design, synthesis and evaluation of antibacterial and antituberculosis properties” (RSC Med Chem, 2023)
